Legend:
[1] = solubility in aqueous solution; assay type: physicochemical; settings: water; compared with azithromycin; read-out: maximum concentration in water
From the text: Formulations containing azithromycin at concentration ranging from 0.01 to 10% w/v, more particularly between 0.3 and 5% w/v, are the most preferred.

[2] = titration of azithromycin and clarithromycin, dispersed in water, with citric acid (FIG. 1, FIG. 2); assay type: physicochemical; settings: titration with citric acid

solubility [1]: < 20 mg/mL | equivalent point [2]: ~4.5 pH
Compound: CC[C@H]1OC(=O)[C@H](C)[C@@H](O[C@H]2C[C@@](C)(OC)[C@@H](O)[C@H](C)O2)[C@H](C)[C@@H](O[C@@H]2O[C@H](C)C[C@H](N(C)C)[C@H]2O)[C@](C)(OC)C[C@@H](C)C(=O)[C@H](C)[C@@H](O)[C@]1(C)O [clarithromycin]
